Test results published in patent US20060193776A1, “Screening methods employing zebrafish and the blood brain barrier” (priority 2004, published 2006).

Experiments:
zebrafish = experiment: DMSO tolerance of zebrafish; assay type: in vivo; conditions: added to the fish water
Excerpt: Zebrafish are also DMSO (dimethyl sulphoxide) tolerant. This is important as DMSO is used as a solvent to dissolve many drugs. The inventors have established that zebrafish can tolerate 1% DMSO. Thus, a candidate drug or other test substance may be dissolved in DMSO and administered to zebrafish by adding to the fish water to give a final concentration of DMSO of at least up to 1%. This is employed in various preferred aspects and embodiments of the present invention.

[1] = rodents; cited from earlier work
[2] = system: blood brain barrier of zebrafish larvae; experiment: Dye exclusion experiments: dye injected into pericardial region, fluorescence intensity in the brain quantified
Procedure: Evans Blue dye (961 Da) was used to investigate the presence of BBB in zebrafish larvae. […] In rodents, Evans Blue leakage is observed following brain trauma.
1) 2% Evans Blue in 0.9% saline was injected into pericardial sac of larvae from 2 days post-fertilisation (d.p.f.) to 1 month old. 0.9% saline was injected as a control.
2) The larvae were left to develop for 6 hours to allow the dye to penetrate from bloodstream into tissues.
3) The larvae were viewed under fluorescent dissecting scope (TRITC filter) to ensure that dye was present in blood vessels.
5) They were embedded in O.C.T. (Optimal Cutting Temperature compound) and 10 μm frozen sections were taken in parasaggital plane.
6) Midline sections were viewed on fluorescent microscope (TRITC filter) at ×40 magnification. Images were taken of Evans Blue injected and saline injected samples.
7) Fluorescent intensity was measured in 3 regions of control and Evans Blue injected samples using AnalySis software. Mean fluorescent intensity was calculated for each age group.
Injection stocks of 2% evans blue in 0.9% saline and a 10% sodium fluorescein in 0.9% saline were prepared and stored at 4° C. Larvae were anaesthetised by immersion in 0.2 mg/ml 3-amino benzoic acid (MS222) prior to being immobilised and oriented in 3% methyl cellulose in embryo medium in a lateral position such that the heart was accessible. Larvae and juveniles from 2 days post-fertilisation (d.p.f.) to 30 d.p.f. were injected into the pericardial region with 0.5 to 2 nl of dye or saline control, depending on age, using standard zebrafish egg microinjection apparatus (Westerfield, 1995). Fish were transferred to fresh embryo medium to recover from anaesthesia, then viewed using a fluorescence dissecting microscope at 1 hour intervals to determine the time of uptake of the dye into the circulation and the time at which dye had permeated from the circulation into non-vascular body tissue. Dye and saline injected larvae were anaesthetised at 4 hours and 6 hours after injection and fixed in 4% paraformaldehyde in PBS. 10 larvae per age group and injection treatment were embedded in Sakura Tissue-Tek OCT Compound (Bayer, Newbury, UK) and frozen parasagittal sections were cut at 10 μm thickness.
Sections were visualised without mounting medium by fluorescence microscopy on an Olympus BX51 microscope. Three midline sagittal sections from each larva were identified and images were captured using a ColorView camera (Olympus) and AnalySis software (Soft Imaging System). The fluorescence intensity within the brain was quantified for each midline section of each larva in each treatment group using colour threshold and area measurements in AnalySis. Mean values, standard deviations and T-tests were calculated using Excel software (Microsoft Office).

[3] = clinical, humans; cited from earlier work
[4] = mammals; cited from earlier work

C[S+](C)[O-] [DMSO, dimethyl sulphoxide]
concentration tolerated by zebrafish (zebrafish): 1%

Cc1cc(-c2ccc(/N=N/c3ccc4c(S(=O)(=O)O)cc(S(=O)(=O)O)c(N)c4c3O)c(C)c2)ccc1/N=N/c1ccc2c(S(=O)(=O)O)cc(S(=O)(=O)O)c(N)c2c1O [Evans Blue]
exclusion from the brain [1]: excluded from the brain if the BBB is intact | fluorescence in the brain ([2]; 3 d.p.f., dye injected into pericardial sac, 6 hours): High level of fluorescence in the brain | brain fluorescence compared with saline injected samples ([2]; 5 d.p.f., dye injected into pericardial sac, 6 hours): no different from saline injected samples | change of fluorescent intensity in the brain with age ([2]; FIG. 2, days post-fertilisation): age dependent decrease | day from which excluded from the brain ([2]; peripheral injection): 5 days

O=C(O)COCCN1CCN(C(c2ccccc2)c2ccc(Cl)cc2)CC1 (stereo not drawn) [cetirizine]
sedating or non-sedating antihistamine [3]: non-sedating

Clc1ccc2c(c1)CCc1cccnc1C2=C1CCNCC1 [desloratadine]
crosses the BBB [4]: does not cross the BBB

OCCOCCN1CCN(C(c2ccccc2)c2ccc(Cl)cc2)CC1 (stereo not drawn) [hydroxyzine]
sedating or non-sedating antihistamine [3]: sedating

CCOC(=O)N1CCC(=C2c3ccc(Cl)cc3CCc3cccnc32)CC1 [loratadine]
sedating or non-sedating antihistamine [3]: non-sedating

O=C([O-])c1ccccc1-c1c2ccc(=O)cc-2oc2cc([O-])ccc12.[Na+].[Na+] [sodium fluorescein]
day from which excluded from the brain ([2]; peripheral injection): 10 days | day until which it permeates into the brain ([2]; peripheral injection): 8 days | age at which fluorescent intensity in the brain decreases sharply (exclusion from the brain) ([2]; peripheral injection, versus saline controls): 10 d.p.f.

Cc1ccc(/C(=C\CN2CCCC2)c2ccccn2)cc1 [triprolidine]
sedating or non-sedating antihistamine [3]: sedating

rhodamine 123
age at which fluorescent intensity in the brain decreases sharply (exclusion from the brain) ([2]; zebrafish, in vivo): 8 d.p.f.
